In one data set the target is GABAA (α1β2γ2) receptor (Homo sapiens (Human), UniProt P14867+P18507+P47870). The data set can be described thus: Whole-cell patch-clamp of GABAA (α1β2γ2) receptor current in stably expressing HEK293 cells. The format is cell-based. The conditions noted are these: allosteric regulation. From the text:
Gamma-aminobutyric acid (GABA) was an important inhibitory amino acid neurotransmitter in the central nervous system, and functioned by binding to GABA receptors. The GABA receptors were divided into three subtypes: GABAA, GABAB and GABAC, among which the GABAA receptor was the most important. The GABAA receptor was an anion-selective ion channel that could enhance chloride ion permeability and thus reduce neuronal excitability. The GABAA receptor was involved in regulating general anesthesia and was also closely related to diseases such as neurological and psychiatric disorders, e.g., depression, insomnia, anxiety and epilepsy. […]
HEK293 cell lines stably expressing the GABAA (α1β2γ2) receptor were used. […] The voltage stimulus of GABA receptor current recorded by a whole-cell patch-clamp technique was as follows: when whole-cell sealing was formed, the cell membrane voltage was clamped at −70 mV. The peak value of current was recorded after sequentially spraying test compounds from low concentration to high concentration and 100 μM GABA onto the cell surface in a Gap-free mode. […] Then slow capacitance compensation was conducted, and the membrane capacitance (pF) and series resistance were recorded. […] Multiple cells were independently and repeatedly detected. […]

Data set [1] is described as follows: Pharmacokinetic study in Beagle dogs. The data set is classed as in vivo. The settings on record: male, dog, plasma, iv, 0.5 mg/kg. The protocol: Six male Beagle dogs (6-10 kg) were randomized into 2 groups (n=3): control group 3 and compound 20. The […] were administered via intravenous injection at 0.5 mg/kg (control group 3) and 0.5 mg/kg (compound 20), respectively, with an administration volume of 1 mL/kg and a vehicle of 5% DMSO+10% solutol (HS15)+85% Saline. Blood samples were taken before administration and at 2 min, 5 min, 10 min, 20 min, 30 min, 1 h, 1.5 h, 2 h and 3 h after administration. Plasma samples were taken by centrifugation, and stored in a −80° C. refrigerator until LC-MS analysis to be tested. After sample processing, quantitative analysis of substances in plasma was conducted using LCMS/MS to detect the concentration of prototype compounds in the plasma. The plasma concentration/time curve obtained in this way was used to calculate pharmacokinetic parameters by a validated pharmacokinetic computer program.

Data set [2] is described as follows: Pharmacokinetic study in rats. The data set is classed as in vivo, SD rats. The settings on record: male, Sprague-Dawley, rat, plasma, iv, 1 mg/kg. As to the method:
Twelve male SD rats (200-300 g) were randomized into 2 groups (n=6): control group 3 and compound 20. The rats were administered via intravenous injection at 1 mg/kg (control group 3) and 1 mg/kg (compound 20), respectively, with an administration volume of 5 mL/kg and a vehicle of 5% DMSO+10% solutol (HS15)+85% Saline. Blood samples were taken before administration and at 2 min, 4 min, 8 min, 12 min, 15 min, 30 min, 1 h, 1.5 h and 2 h after administration. Plasma samples were taken by centrifugation, and stored in a −80° C. refrigerator until LC-MS analysis to be tested. After sample processing, quantitative analysis of substances in plasma was conducted using LCMS/MS to detect the concentration of prototype compounds in the plasma. The plasma concentration/time curve obtained in this way was used to calculate pharmacokinetic parameters by a validated pharmacokinetic computer program.

The next data set deals with ICR mice. Kind of data set: animal or person. As to the method:
(§1) SPF-grade ICR mice, each weighing 18-22 g, half male and half female, were used. A well-established mouse anesthesia model was used to study the general anesthesia effect of the compound of the present invention. The compounds were formulated with solvents of 10% DMSO, 15% solutol (HS15) and 75% saline to the desired concentration, for further use. After adapting to the experimental environment, the experimental animals were fasted with water available for 12 h, and were administered via intravenous injection at an administration volume of 10 mL/kg. Then the anesthesia induction time (the time period from drug administration to disappearance of the righting reflex) and the anesthesia maintenance time (the time period from disappearance of the righting reflex to recovery of the righting reflex) were recorded. Indicators including the median effective dose (ED50), median lethal dose (LD50), therapeutic index (TI, i.e. LD50/ED50), anesthesia induction time, anesthesia maintenance time and maximum tolerated dose were used to evaluate the effect and safety of anesthesia.

The nature of data set [3]: in vivo. The conditions noted are these: both, ICR, mouse, in vivo, iv. The protocol: as §1
In a further data set the test system is Beagle dogs. Kind of data set: Hemodynamic effect study in conscious Beagle dogs (telemetry). The data set is classed as in vivo. The conditions noted are these: iv. The protocol:
The experiment used an emka PACK 4G telemetry system to detect the effects of intravenous injection of control group 3 and compound 20 on electrocardiogram, blood pressure and body temperature in conscious Beagle dogs, providing reference information for evaluating the safety of clinical use.
Four Beagle dogs were subjected to crossover administration, with a vehicle control (5% DMSO+10% solutol+85% Saline), control group 3 (2 mg/kg), compound 20 (0.5 mg/kg) and compound 20 (1 mg/kg) for each intravenous injection, with an administration volume of 2 mL/kg. Observations were respectively conducted before administration and within 1 h after administration on the day of administration. Anal temperature was measured before administration and at 30 min, 1 h, 2 h and 3 h after administration during each administration period; and electrocardiogram parameters were continuously collected from 0.5 h before administration to 3 h after administration during each administration period. Blood pressure was collected at 15 min after collection was started, and was collected at 2 min, 5 min, 10 min, 20 min, 30 min, 1 h, 2 h and 3 h after administration. The electrocardiogram, blood pressure data, body temperature, and clinical observation results on the day of administration at various time points including before administration (at 30 min after collection was started) and at 2 min, 5 min, 10 min, 20 min, 30 min, 1 h, 2 h and 3 h after administration were analysed and evaluated.

For a further data set, the system named is SD rats. Kind of data set: animal or person. The format is in vivo. The settings on record: rats.
A short description of data set [4]: in vivo. The data set is classed as in vivo, rats. The conditions noted are these: both sexes, Sprague-Dawley, rat, in vivo, rats.
Description: (§2) SD rats, half male and half female, were fasted with water available for 12 h, and were administered via intravenous injection at an administration volume of 10 mL/kg. Then the anesthesia induction time (the time period from drug administration to disappearance of the righting reflex), the anesthesia maintenance time (the time period from disappearance of the righting reflex to recovery of the righting reflex and revival) and the anesthesia recovery time (the time period from revival to complete recovery) were recorded. Indicators including the median effective dose (ED50), median lethal dose (LD50), therapeutic index (TI, i.e. LD50/ED50), anesthesia induction time, anesthesia maintenance time and maximum tolerated dose were used to evaluate the effect and safety of anesthesia.

Read-outs that look alike come from different tables or passages of the source.

Broadly, the AUC(0-t) is exposure summed from dosing to a finite time, without extrapolation to infinity. A low value points to low exposure. As usually defined, the half-life is the time needed for the level to fall by half in the phase considered. The low end stands for fast loss, the high end for slow loss. What is called ED50 is the dose at which the effect has come halfway, by size or by number of responders. For orientation: LD50 means the dose at which mortality reaches 50%.

Chain of GABAA (α1β2γ2) receptor (P14867 28-456 limits assumed): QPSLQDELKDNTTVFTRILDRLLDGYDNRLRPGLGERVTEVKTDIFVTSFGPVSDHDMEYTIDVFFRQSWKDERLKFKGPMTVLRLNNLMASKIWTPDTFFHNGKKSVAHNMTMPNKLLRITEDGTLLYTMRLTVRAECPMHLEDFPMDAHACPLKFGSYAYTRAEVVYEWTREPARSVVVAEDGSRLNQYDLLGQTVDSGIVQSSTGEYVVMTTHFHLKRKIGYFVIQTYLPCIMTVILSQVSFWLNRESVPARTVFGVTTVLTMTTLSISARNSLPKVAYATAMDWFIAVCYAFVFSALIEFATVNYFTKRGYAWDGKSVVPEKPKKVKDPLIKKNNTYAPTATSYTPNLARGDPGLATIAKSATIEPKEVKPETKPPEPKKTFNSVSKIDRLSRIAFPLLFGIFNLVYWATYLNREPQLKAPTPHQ
Chain of GABAA (α1β2γ2) receptor (P47870 26-512 limits assumed): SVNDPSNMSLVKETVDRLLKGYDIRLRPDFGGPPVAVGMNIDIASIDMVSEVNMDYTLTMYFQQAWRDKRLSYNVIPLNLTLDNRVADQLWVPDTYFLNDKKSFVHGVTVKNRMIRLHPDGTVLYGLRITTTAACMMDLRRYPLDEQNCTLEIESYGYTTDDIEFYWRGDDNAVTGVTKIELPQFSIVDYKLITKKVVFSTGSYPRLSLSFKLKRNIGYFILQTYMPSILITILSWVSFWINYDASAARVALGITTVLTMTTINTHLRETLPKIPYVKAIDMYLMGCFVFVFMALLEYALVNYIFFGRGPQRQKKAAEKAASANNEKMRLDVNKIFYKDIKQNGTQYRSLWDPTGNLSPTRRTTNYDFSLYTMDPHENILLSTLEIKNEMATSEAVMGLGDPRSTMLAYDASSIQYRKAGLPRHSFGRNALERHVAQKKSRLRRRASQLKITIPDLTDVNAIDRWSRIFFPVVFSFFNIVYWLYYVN
Chain of GABAA (α1β2γ2) receptor (P18507 40-475 limits assumed): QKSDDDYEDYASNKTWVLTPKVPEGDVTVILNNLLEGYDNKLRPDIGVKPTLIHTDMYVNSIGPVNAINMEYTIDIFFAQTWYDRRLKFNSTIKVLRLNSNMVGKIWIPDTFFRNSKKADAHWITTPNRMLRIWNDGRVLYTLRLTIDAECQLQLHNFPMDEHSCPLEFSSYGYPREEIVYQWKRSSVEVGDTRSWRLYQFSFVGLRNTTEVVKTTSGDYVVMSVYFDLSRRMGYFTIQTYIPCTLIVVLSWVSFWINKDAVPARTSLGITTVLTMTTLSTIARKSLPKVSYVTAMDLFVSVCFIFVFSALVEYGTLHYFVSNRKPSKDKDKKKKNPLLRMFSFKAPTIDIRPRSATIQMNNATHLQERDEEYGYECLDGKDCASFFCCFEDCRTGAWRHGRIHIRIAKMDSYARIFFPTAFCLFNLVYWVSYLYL
Description for SD rats: as §2

Consider `CCS(=O)(=O)[C@@H](C)c1cccc([C@H](C)C2CC2)c1O` [Compound 20, 2-((R)-1-cyclopropylethyl)-6-((S)-1-(ethylsulfonyl)ethyl)phenol], for which the EC50 on GABAA (α1β2γ2) receptor (HEK293, -70 mV, n=3, read-out: EC50) was found to be 1560 nM; at GABAA (α1β2γ2) receptor (HEK293, text restatement, read-out: semi-activated concentration (EC50)), 1560 nM. For the same molecule, the AUC(0-t) in data set [1] was 128 ng·h/mL; in data set [2], 196 ng·h/mL. Besides, the half-life in data set [1] was 47.4 min; in data set [2], 19.8 min. The ED50 in the data set on ICR mice (Mus musculus, iv) worked out at 0.6 mg/kg; in the data set on SD rats (Rattus norvegicus, intravenous injection, loss of righting reflex, read-out: ED50), 0.5 mg/kg. For the same molecule, the TI in the data set on ICR mice (mice, LD50/ED50) turned out to be 5.8; in the data set with SD rats (LD50/ED50), 6.4. In addition, the Anesthesia induction time came to 2 s in the data set on ICR mice (mice, iv, administration to disappearance of righting reflex) and 10 s with SD rats (iv, administration to disappearance of righting reflex). Further, the Anesthesia maintenance time with ICR mice (mice, iv, disappearance to recovery of righting reflex) is on record as 573 s; in the data set with SD rats (iv, disappearance to recovery of righting reflex) it was 624 s. In addition, the LD50 amounted to 3.5 mg/kg in the data set “in vivo [3]” and 3.2 mg/kg in “in vivo [4]” (intravenous injection, read-out: LD50). For the same molecule, the MTD in “in vivo [3]” is 1.8 mg/kg; in “in vivo [4]” (iv, maximum tolerated dose, read-out: MTD), 2.2 mg/kg. In addition, the “effect on the heart rate, blood pressure and body temperature” value in the data set with Beagle dogs (0.5 and 1 mg/kg) is reported as “little effect”. Further, in the data set with Beagle dogs (control group 3 2 mg/kg, compound 20 0.5 and 1 mg/kg, within 1 h, recovery after 1 h), the “change in heart rate after administration” value was “slow down in heart rate”.

The values are drawn from patent publication US20240132445A1, “PHENOL DERIVATIVE AND APPLICATION THEREOF IN MEDICAMENTS” (priority 2021, published 2024).
